Measurements from US20210222177A1, “THERAPEUTIC AGENT FOR CARTILAGE-RELATED DISEASE” (ONO PHARMACEUTICAL CO., LTD., priority 2018, published 2021).

Test system: Normal human knee joint chondrocytes
Assay: Evaluation of chondrocyte differentiation promoting action (chondrocyte pellet culture)
Assay type: cell-based
Conditions: ASO final concentration 1000 nmol/L with calcium chloride 9 mmol/L, pellet-cultured for 10 days, versus Vehicle group
Protocol: Normal human knee joint chondrocytes (Lonza Walkersville, Inc.) were thawed and cultured (culture conditions; 5% CO2, 37° C., 95% Air, the same conditions applies hereafter.) in a subculture medium (DMEM/F-12+glutaMAX, included in set of chondrocyte addition factors (Lonza Walkersville, Inc.)). Diluted subculture was performed after subconfluent, and two days after subculture, the culture was treated with antisense oligonucleotides against SIK2 and SIK3 (hereinafter SIK2 ASO; ACAACAACTGCACTTT (SEQ ID NO: 1) and SIK3 ASO; GGTTAGTGCCACGTTG (SEQ ID NO: 6)) in the presence of calcium chloride (9 mmol/L) (final concentration 1000 nmol/L). […] Chondrocyte pellets were imaged using Opera Phenix High Content Screening System (PerkinElmer), and pellet size (area of the pellet image) was calculated using an attached analysis software Harmony. The chondrocyte pellets after imaging were frozen in liquid nitrogen, crushed using AUTOMILL (Tokken, inc.), and then total RNA was extracted using RNeasy Plus Mini Kit (QIAGEN N.V.). cDNA was synthesized from a total RNA solution using High Capacity cDNA Reverse Transcription Kit, and expression level of each gene was measured by real-time polymerase chain reaction (PCR) method using TaqMan Fast Universal PCR Master Mix (2×) (Life Technologies Corporation) and Primer-Probe (COL2A1 assay ID: Hs01060345_m1, COL1A2 assay ID: Hs01028970_m1) of each gene. […]

For “SIK2 ASO: SIK2 antisense oligonucleotide, ACAACAACTGCACTTT (SEQ ID NO: 1) (listed as DNA, chemistry not given here)”, the “cartilage differentiation markers COL2A1/COL1A2” value (real-time PCR, FIG. 2) was “increased” and the “chondrocyte pellet size (area of the pellet image)” value (t-test, FIG. 1) was “significantly increased”.
